Results on 6 molecules are retold here after PMC12908707, “Pharmacodynamic effects and plasma pharmacokinetics of N, N-dimethyltryptamine after intranasal versus subcutaneous administration in male rats” (Psychopharmacology, 2025).

Usually AUC stands for concentration integrated over time. Read a low AUC as low exposure. As usually defined, the Tmax is the time at which the peak concentration occurs.

The structures appear in SMILES notation. Read-outs that look alike come from different tables or passages of the source.

In series [1] the test system is rats. On the set-up: method as in Baumann and Rothman [1996]; Elmore et al. [2018]. Conditions: SC, dose-related increases, ref Baumann and Rothman [1996], Elmore et al. [2018]; cited from earlier work.
For series [2], the system named is rats. On the set-up: method as in Lucki et al. ([1984]). The settings on record: intraperitoneal (IP), ref Lucki et al. ([1984]); cited from earlier work.
A short description of series [3]: Plasma pharmacokinetics of DMT and DMT N-oxide after IN or SC DMT (LC-QQQ-MS, non-compartmental analysis). It counts as in vivo, male Sprague-Dawley rats. Conditions: for AUC / Tmax / Cmax / half-life: male, Sprague-Dawley, rat, plasma DMT; for Cmax / half-life: plasma. How it is done:
For the IN DMT experiments, blood samples (300 µL) were withdrawn via IV catheters immediately before (time zero) and at 5, 10, 20, 40, and 80 min after injection. For the SC DMT experiments, blood samples were withdrawn immediately before (time zero) and at 10, 20, 40, 80, and 160 min after injection. Samples were collected into 1 mL tuberculin syringes and transferred to 1.5 mL plastic tubes containing 5 µL of 1000 IU/mL heparin (Thomas Scientific) as an anticoagulant and 5 µL of 250 mM sodium metabisulfite as a preservative. Blood was centrifuged at 1000 g for 10 min at 4 °C. Plasma was decanted into cryovials and stored at − 80 °C until analysis. To maintain volume and osmotic homeostasis, rats received an equal volume of saline solution via the IV catheter after each blood withdrawal.
Samples were extracted using a basic solid phase extraction (SPE) procedure. Spiking solutions (final concentrations 0.1, 1.0 and 10 ng/µL) contained all analytes and were prepared by serial dilution in methanol from stock solutions. Calibration curves contained eight non-zero calibrators from 5 to 1000 ng/mL. Quality controls were assessed at 15, 60, 150, and 800 ng/mL. DMT-D4 (25 µL, 1.0 ng/µL) was utilized as the internal standard. Authentic rat plasma samples were stored at −80 °C prior to analysis.
Drug-free rat plasma was fortified with appropriate spiking solutions and aliquoted (150 µL) for extraction. Authentic rat plasma was assayed at 150 µL. Internal standard was added at a final concentration of 125 ng/mL. Samples were diluted with 1 mL phosphate buffer (0.1 M, pH 6) followed by centrifugation for 5 min at 4200 rpm, then extracted using Chromabond® SPE cartridges (200 mg, 3 mL)(Macherey-Nagel, Allentown, PA, USA). The columns were conditioned using methanol (2 mL), deionized water (2 mL), and phosphate buffer (0.1 M, pH 6, 2 mL). The buffered sample was added to the columns and impurities were removed using deionized water (1 mL), acetic acid (0.1 M, 1 mL), and methanol (1 mL). Analytes were eluted using 3 mL of dichloromethane: isopropanol: ammonia (78:20:2, v: v:v). The organic solvent was evaporated to dryness under nitrogen at 33 °C. Samples were reconstituted in 100 µL of initial mobile phase conditions (90 A:10B).

The subject of series [4] is male Sprague-Dawley rats. The experiment in a line: Core body temperature by SC temperature transponder.
The test system of series [5] is male Sprague-Dawley rats. The experiment in a line: Behavioral scoring: motor activity (summed motor scores). The settings on record: IN or SC, 1, 3, 10 mg/kg; Dunnett's post hoc test. It counts as in vivo.
Series [6] concerns male Sprague-Dawley rats. The experiment in a line: Behavioral scoring: wet dog shakes (proxy for 5-HT2A activation). It counts as in vivo. Conditions: SC, 1 and 3 mg/kg.
Series [7] deals with male Sprague-Dawley rats. Put plainly: Behavioral scoring: flat body posture (element of the 5-HT syndrome). It counts as in vivo.
Another series concerns male and female rats. Also noted: method as in Tylš et al. [2016]. Conditions: SC, ref Tylš et al. [2016]; cited from earlier work.
[8] abbreviates: inhaled or intranasal, 1 mg/kg IN, mean ± SEM, n = 5 rats.
The mark [9] stands for this setting: inhaled or intranasal, 3 mg/kg IN, mean ± SEM, n = 5 rats.
[10] abbreviates: inhaled or intranasal, 10 mg/kg IN, mean ± SEM, n = 5 rats.
The mark [11] stands for this setting: 1 mg/kg SC, mean ± SEM, n = 5 rats.
[12] abbreviates: 3 mg/kg SC, mean ± SEM, n = 5 rats.
The mark [13] stands for this setting: 10 mg/kg SC, mean ± SEM, n = 5 rats.

With `COc1cc(CCN)c(OC)cc1I` [2 C-I, 2-(4-iodo-2,5-dimethoxyphenyl)ethanamine], the wet dog shakes entry in the series on rats [1] was “more than ten episodes per hour”.

`COc1ccc2[nH]cc(CCN(C)C)c2c1` [5-MeO-DMT, 5-methoxy-N, N-dimethyltryptamine]: the 5-HT behavioral syndrome result in the series on rats [2] is recorded as “produces the 5-HT behavioral syndrome”.

As to `C[N+](C)([O-])CCc1c[nH]c2ccccc12` [DMT N-oxide], the “plasma concentrations of DMT N-oxide by 80 min post-treatment” value in series [3] (after all doses of IN DMT) is reported as “either undetectable or very low”.

Take `CN(C)CCc1c[nH]c2ccccc12` [DMT, N,N-dimethyltryptamine]: the “body temperature nadir (hypothermic effect)” value in the series with male Sprague-Dawley rats [4] (10 mg/kg IN, sustained throughout the sampling period (80 min)) came out at 34.4 °C; in the series with male Sprague-Dawley rats [4] (10 mg/kg SC, subsided by end of sampling period (160 min)), 34.2 °C. Further, in the series on male Sprague-Dawley rats [4] (IN, all doses, by 20 min post-treatment), the “body temperature vs saline controls” value is recorded as “significantly reduced temperature”. The “summed motor scores vs vehicle controls” value in the series on male Sprague-Dawley rats [5] is given as “no significant differences”. The “predicted AUC” value in series [3] (10 mg/kg IN, ~3.3-times the measured AUC at 3 mg/kg) was 2950 ng·min/mL. Moreover, the “plasma concentrations of DMT by 80 min post-treatment” value in series [3] (after all doses of IN DMT) is “below the LOD, or nearly so”. The exposure (AUC) in series [3] (setting [8]) was 6.08 ng·h/mL; in series [3] (setting [9]), 14.9 ng·h/mL; in series [3] (setting [10]), 93.8 ng·h/mL; in series [3] (setting [11]) it was 16.4 ng·h/mL; in series [3] (setting [12]), 47.7 ng·h/mL; in series [3] (setting [13]) it was 158 ng·h/mL. For the same molecule, the Tmax was 5 min in series [3] (setting [8]); 6 min in series [3] (setting [9]); 7 min in series [3] (setting [10]); 14 min in series [3] (setting [11]); 22 min in series [3] (setting [12]); 64 min in series [3] (setting [13]). Further, the Cmax is 30.1 ± 7.6 ng/mL in series [3] (inhaled or intranasal, 1 mg/kg, 1 mg/kg IN, mean ± SEM, n = 5 rats, read-out: Cmax); 55.6 ± 15.4 ng/mL in series [3] (inhaled or intranasal, 3 mg/kg, 3 mg/kg IN, mean ± SEM, n = 5 rats, read-out: Cmax); 268 ± 50.7 ng/mL in series [3] (inhaled or intranasal, 10 mg/kg, 10 mg/kg IN, mean ± SEM, n = 5 rats, read-out: Cmax); 30.2 to 55.6 ng/mL in series [3] (other: IN (intranasal, infused into the nares), 3 mg/kg, low IN doses (1 and 3 mg/kg), read-out: maximal DMT concentrations (Cmax) after low IN doses); 19.6 ± 2.2 ng/mL in series [3] (sc, 1 mg/kg, 1 mg/kg SC, mean ± SEM, n = 5 rats, read-out: Cmax); 35.8 ± 2.4 ng/mL in series [3] (sc, 3 mg/kg, 3 mg/kg SC, mean ± SEM, n = 5 rats, read-out: Cmax). Also, the Cmax in series [3] (sc, 10 mg/kg, 10 mg/kg SC, mean ± SEM, n = 5 rats, read-out: Cmax) came to 81.6 ± 11.1 ng/mL. Moreover, the half-life is 12.9 ± 2.8 min in series [3] (inhaled or intranasal, 1 mg/kg, 1 mg/kg IN, mean ± SEM, n = 5 rats, read-out: t1/2); 14.3 ± 1.9 min in series [3] (inhaled or intranasal, 3 mg/kg, 3 mg/kg IN, mean ± SEM, n = 5 rats, read-out: t1/2); 11.9 ± 1.4 min in series [3] (inhaled or intranasal, 10 mg/kg, 10 mg/kg IN, mean ± SEM, n = 5 rats, read-out: t1/2); 11.9 to 14.3 min in series [3] (other: IN (intranasal, infused into the nares), 10 mg/kg, IN route, across 1, 3 and 10 mg/kg, read-out: t1/2 range); 45.5 ± 9.5 min in series [3] (sc, 1 mg/kg, 1 mg/kg SC, mean ± SEM, n = 5 rats, read-out: t1/2); 91.7 ± 26.4 min in series [3] (sc, 3 mg/kg, 3 mg/kg SC, mean ± SEM, n = 5 rats, read-out: t1/2). Moreover, the half-life in series [3] (sc, 10 mg/kg, 10 mg/kg SC, mean ± SEM, n = 5 rats, read-out: t1/2) was 123 ± 36.4 min; in series [3] (sc, 10 mg/kg, SC route, across 1, 3 and 10 mg/kg, read-out: t1/2 range) it was 45.5 to 123 min. For the same molecule, the “wet dog shakes vs vehicle” value with male Sprague-Dawley rats [6] was “increased compared to vehicle”. The “flat body posture vs vehicle” value is “increased above vehicle” in the series on male Sprague-Dawley rats [7] (IN, 3 and 10 mg/kg); “increased” in the series with male Sprague-Dawley rats [7] (SC, only at 10 mg/kg).

`COc1cc(CC(C)N)c(OC)cc1I` (centres unmarked) [DOI, 1-(4-iodo-2,5-dimethoxyphenyl)propan-2-amine]: the wet dog shakes result with rats [1] is on record as “more than ten episodes per hour”.

Turning to `CN(C)CCc1c[nH]c2cccc(O)c12` [psilocin, 4-hydroxy-N, N-dimethyltryptamine], the flat body posture result with male and female rats was “causes flat body posture”.
